Test: recombinant barcode read abundance after kanamycin selection (control-corrected) (log10(CPM+1)); higher = more efficient recombination; sequences stand for … in AGTGCAGAGAAAATCGGCCAGTTTTCTCTGCCTGCAGTCCGCATGCCGT…AGATTTATGCAGCGGACTGCCTTTCTCCCAAAGTGATAAACCGGACAGTATCATGGACCGGTTTTCCCGGTAATCCGTATTTGCAAGGTTGGTTTCACT; site = the 11-nt target
Method: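 Pooled E. coli target-specificity screen for the IS621 bridge recombinase. Each library plasmid pairs an 11-nt target (CT core) with a bridge RNA whose target-binding loop (9-nt LTG + 4-nt RTG) is reprogrammed; the rest of the 177-nt WT IS621 bridge RNA scaffold is fixed. The plasmid is co-electroporated with a WT donor plasmid; recombinase is induced with 0.1 mM IPTG and recombinants are selected on kanamycin. Recombinant barcodes are sequenced, converted to CPM, averaged over two biological replicates and corrected by the unselected control CPM. Molecule = full bridge RNA written as DNA: LTG = specificity nt 1-9, RTG = reverse complement of specificity nt 8-11, in the WT scaffold.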
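Also: IS621 recombinase and bridge RNA in Escherichia coli cells.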

Row | Sequence | recombinant barcode read abundance (log10)
1 | AGGAAGACTTGGGTTCTAACCTGTTGCGG (site AGGAAGACTCG) | 0.25
2 | AGGAAGGCTTGGGTTCTAACCTGTTGCCA (site AGGAAGGCTTG) | 0.693
3 | AGGAAGGCTTGGGTTCTAACCTGTTGCCA (site GACGTAACTCT) | 0.145
4 | AGGACTACTTGGGTTCTAACCTGTTGCCT (site AGAACTACTAG) | 0.217
5 | AGGACTACTTGGGTTCTAACCTGTTGCCT (site AGGACTACTAG) | 1.3
6 | AGGAGAGCTTGGGTTCTAACCTGTTGCTT (site AGGAGAGCTAA) | 1.13
7 | AGGAGAGCTTGGGTTCTAACCTGTTGCTT (site CTAGCGACTGT) | 0.0392
8 | AGGAGCCCTTGGGTTCTAACCTGTTGCCA (site AGGAGCCCTAG) | 0.408
9 | AGGAGCCCTTGGGTTCTAACCTGTTGCCA (site AGGAGCCCTTG) | 0.841
10 | AGGAGCCCTTGGGTTCTAACCTGTTGCTA (site AGGAGCCCTAA) | 0.0121
11 | AGGAGCCCTTGGGTTCTAACCTGTTGCTA (site AGGAGCCCTCA) | 0.165
12 | AGGAGCCCTTGGGTTCTAACCTGTTGCTA (site AGGAGCCCTGA) | 0.0798
13 | AGGAGCCCTTGGGTTCTAACCTGTTGCTA (site AGGAGCCCTTA) | 1.38
14 | AGGATAGCTTGGGTTCTAACCTGTTGCGG (site AGGATAGCTCC) | 2.18
15 | AGGATAGCTTGGGTTCTAACCTGTTGCGG (site AGTCTAGCTCC) | 0.102
16 | AGGATAGCTTGGGTTCTAACCTGTTGCTG (site AGAATAGCTCT) | 0.148
17 | AGGATAGCTTGGGTTCTAACCTGTTGCTG (site AGGATAGCTCA) | 1.45
18 | AGGATCCCTTGGGTTCTAACCTGTTGCAG (site AGGATCCCTAT) | 0.701
19 | AGGATCCCTTGGGTTCTAACCTGTTGCAG (site AGGATCCCTCT) | 2.31
20 | AGGCCCGCTTGGGTTCTAACCTGTTGCGG (site AGGCCCGCTCC) | 0.794
21 | AGGCCCGCTTGGGTTCTAACCTGTTGCGG (site GTAAGATCTGT) | 0.186

Row | Sequence | recombinant barcode read abundance (log10)
22 | AGGCGCCCTTGGGTTCTAACCTGTTGCAG (site AGGCGCCCTAT) | 0.185
23 | AGGCGCCCTTGGGTTCTAACCTGTTGCAG (site AGGCGCCCTCT) | 1.4
24 | AGGCGCCCTTGGGTTCTAACCTGTTGCAG (site AGGCGCCCTGT) | 0.0789
25 | AGGCGCCCTTGGGTTCTAACCTGTTGCAG (site AGGCGCCCTTT) | 0.122
26 | AGGCGTCCTTGGGTTCTAACCTGTTGCCC (site AGGCGTCCTAG) | 0.417
27 | AGGCGTCCTTGGGTTCTAACCTGTTGCCC (site AGGCGTCCTCG) | 0.0817
28 | AGGCGTCCTTGGGTTCTAACCTGTTGCCC (site AGGCGTCCTGG) | 1.78
29 | AGGCGTCCTTGGGTTCTAACCTGTTGCCC (site AGGCGTCCTTG) | 0.211
30 | AGGCTGCCTTGGGTTCTAACCTGTTGCCT (site AGGCTGACTAG) | 0.126
31 | AGGCTGCCTTGGGTTCTAACCTGTTGCCT (site AGGCTGCCTAG) | 0.867
32 | AGGCTGCCTTGGGTTCTAACCTGTTGCCT (site AGGCTGGCTAG) | 0.0502
33 | AGGCTGCCTTGGGTTCTAACCTGTTGCCT (site AGGCTGTCTAG) | 0.494
34 | AGGCTGGCTTGGGTTCTAACCTGTTGCCT (site AGGCTGACTAG) | 0.511
35 | AGGCTGGCTTGGGTTCTAACCTGTTGCCT (site AGGCTGCCTAG) | 0.0205
36 | AGGCTGGCTTGGGTTCTAACCTGTTGCCT (site AGGCTGGCTAG) | 0.482
37 | AGGCTGGCTTGGGTTCTAACCTGTTGCCT (site AGGCTGTCTAG) | 0.166
38 | AGGGACCCTTGGGTTCTAACCTGTTGCCT (site AGGGACCCTAG) | 2.62
39 | AGGGACCCTTGGGTTCTAACCTGTTGCCT (site TCTTGGACTGT) | 0.0407
40 | AGGGCAGCTTGGGTTCTAACCTGTTGCCT (site AGGGAAGCTAG) | 0.135
41 | AGGGCAGCTTGGGTTCTAACCTGTTGCCT (site AGGGCAGCTAG) | 0.305
42 | AGGGCAGCTTGGGTTCTAACCTGTTGCCT (site AGGGGAGCTAG) | 0.0111

Row | Sequence | recombinant barcode read abundance (log10)
43 | AGGGCAGCTTGGGTTCTAACCTGTTGCCT (site AGGGTAGCTAG) | 0.0905
44 | AGGGCGCCTTGGGTTCTAACCTGTTGCCT (site AAGGCGCCTAG) | 0.0579
45 | AGGGCGCCTTGGGTTCTAACCTGTTGCCT (site ACGGCGCCTAG) | 0.173
46 | AGGGCGCCTTGGGTTCTAACCTGTTGCCT (site AGGGCGCCTAG) | 1.63
47 | AGGGCGCCTTGGGTTCTAACCTGTTGCCT (site ATGGCGCCTAG) | 0.122
48 | AGGGGTCCTTGGGTTCTAACCTGTTGCAT (site AGGGGTCCTAT) | 2.72
49 | AGGGGTCCTTGGGTTCTAACCTGTTGCAT (site TGGGATCCTAT) | 0.482
50 | AGGGTACCTTGGGTTCTAACCTGTTGCAG (site AGGGTACCTCT) | 2.52
51 | AGGGTACCTTGGGTTCTAACCTGTTGCAG (site GAATCGACTAG) | 0.0315
52 | AGGGTAGCTTGGGTTCTAACCTGTTGCCT (site AGGGAAGCTAG) | 0.101
53 | AGGGTAGCTTGGGTTCTAACCTGTTGCCT (site AGGGCAGCTAG) | 0.224
54 | AGGGTAGCTTGGGTTCTAACCTGTTGCCT (site AGGGGAGCTAG) | 0.163
55 | AGGGTAGCTTGGGTTCTAACCTGTTGCCT (site AGGGTAGCTAG) | 1.04
56 | AGGTATGCTTGGGTTCTAACCTGTTGCCT (site AGGTATGCTAG) | 1.35
57 | AGGTATGCTTGGGTTCTAACCTGTTGCCT (site AGGTCTGCTAG) | 0.0877
58 | AGGTATGCTTGGGTTCTAACCTGTTGCCT (site AGGTGTGCTAG) | 0.51
59 | AGGTATGCTTGGGTTCTAACCTGTTGCCT (site AGGTTTGCTAG) | 0.248
60 | AGGTCTACTTGGGTTCTAACCTGTTGCAC (site AGGTCTACTGT) | 0.521
61 | AGGTCTACTTGGGTTCTAACCTGTTGCAC (site GTCCTATCTTA) | 0.13
62 | AGGTCTACTTGGGTTCTAACCTGTTGCTT (site AGGTCTACTAA) | 0.296
63 | AGGTCTACTTGGGTTCTAACCTGTTGCTT (site GAACGCTCTTG) | 0.171

Row | Sequence | recombinant barcode read abundance (log10)
64 | AGGTTCCCTTGGGTTCTAACCTGTTGCTC (site AGGTTCCCTAA) | 0.243
65 | AGGTTCCCTTGGGTTCTAACCTGTTGCTC (site AGGTTCCCTCA) | 0.101
66 | AGGTTCCCTTGGGTTCTAACCTGTTGCTC (site AGGTTCCCTGA) | 1.45
67 | AGGTTCCCTTGGGTTCTAACCTGTTGCTC (site AGGTTCCCTTA) | 0.026
68 | AGTAAGCCTTGGGTTCTAACCTGTTGCCA (site AGTAAGCCTTG) | 0.33
69 | AGTAAGCCTTGGGTTCTAACCTGTTGCCA (site AGTAAGGCTAG) | 0.113
70 | AGTAAGGCTTGGGTTCTAACCTGTTGCCT (site AGTAAGCCTTG) | 0.44
71 | AGTAAGGCTTGGGTTCTAACCTGTTGCCT (site AGTAAGGCTAG) | 0.0834
72 | AGTACAACTTGGGTTCTAACCTGTTGCCT (site AGAACAACTAG) | 0.134
73 | AGTACAACTTGGGTTCTAACCTGTTGCCT (site AGCACAACTAG) | 0.153
74 | AGTACAACTTGGGTTCTAACCTGTTGCCT (site AGGACAACTAG) | 0.0508
75 | AGTACAACTTGGGTTCTAACCTGTTGCCT (site AGTACAACTAG) | 0.237
76 | AGTAGGACTTGGGTTCTAACCTGTTGCAG (site AGCAGGGCTCT) | 0.474
77 | AGTAGGACTTGGGTTCTAACCTGTTGCAG (site AGTAGGACTCT) | 2
78 | AGTAGTGCTTGGGTTCTAACCTGTTGCCT (site AATAGTGCTAG) | 0.186
79 | AGTAGTGCTTGGGTTCTAACCTGTTGCCT (site ACTAGTGCTAG) | 0.0779
80 | AGTAGTGCTTGGGTTCTAACCTGTTGCCT (site AGTAGTGCTAG) | 0.0473
81 | AGTAGTGCTTGGGTTCTAACCTGTTGCCT (site ATTAGTGCTAG) | 0.0347
82 | AGTATATCTTGGGTTCTAACCTGTTGCCT (site AGTATATCTAG) | 0.121

Source: the supplement of paper PMC11208160
